From patent publication US9408393B2, “Bismuth-thiols as antiseptics for agricultural, industrial and other uses” (Microbion Corporation, priority 2010, dated 2016) come the findings set out here.

For one assay, the system named is barnacle larvae. In words: Barnacle larvae settlement inhibition. How it is done: Compounds, BisBAL and BisTOL were included in an assay to determine the inhibitory activity of each compound on barnacle larvae settlement behavior. Methods were performed according to techniques practiced in the art. […] In another experiment, BisEDT was dissolved either directly in natural seawater or first dissolved in DMSO and then diluted in natural seawater. The EC50 measurements were not statistically different.

The test system of another assay is marine diatom. The experiment in a line: Marine diatom settlement inhibition. The note with it: 0.1 μg/ml. As to the method: The effect of three bismuth containing compounds, bismuth dimercaprol (BisBAL), bismuth dimercaptotoluene (BisTOL), and bismuth ethanedithiol (BisEDT), on growth of a marine diatom was determined according to techniques practiced in the art. Settlement of marine diatoms (diatoms per fov) was inhibited by increasing concentrations of each of the three compounds (0.001, 0.01, 0.1, 1.0, and 10.0 μg/ml). […] 1987; 41:435-64; Domenico et al., Antimicrob Agents and Chemother. 2001; 45(5):1417-21; Halwani et al., Int J Pharm. 2008; 358:278-84; Johnson et al., Clin Infect Dis. 2007; 45(4):409-415. ADA Council on Scientific Affairs. Direct and indirect restorative materials. JADA 2003; 134:463-72. Alliance for Coastal Technologies (ACT). 2004. Biofouling Prevention Technologies for Coastal Sensors/Sensor Platforms. University of Maryland Center of Environmental Science, Workshop Proceedings, November 2003. UMCES Technical Report Series No. TS-426-04-CBL, Solomons, M D. Athanassiadis et al., Aust Dent J 2007; 52:S64-82. Alt et al., Antimicrob Agents Chemother 2004; 48:4084-88. Bayston et al., Biomaterials 2009; 30:3167-73. Bernardo et al., JADA 2007; 138:775-783. Beytha et al., J Dent 2007; 35:201-206. Bohner et al., J Pharm Sci 1997; 86:565-72. Bruxton, Eng News 1908; 59,525; Chem. Abs., 2:2010. Bueno et al. Oral Surg Oral Med Oral Pathol Oral Radiol Endod 2009; 107:e65-9. […]

Another assay has as its system M. hydrocarbonoclasicus. In words: MIC against marine bacteria. In kind it is cell-based. The note with it: marine bacterium M. hydrocarbonoclasicus. As to the method: (§1) This example describes the antimicrobial activity of bismuth containing compounds. The MIC values of three bismuth containing compounds, bismuth dimercaprol (BisBAL), bismuth dimercaptotoluene (BisTOL), and bismuth ethanedithiol (BisEDT), against three different marine bacteria were determined using methods routinely practiced by persons skilled in the art.

The next assay concerns H. marina. In words: MIC against marine bacteria. In kind it is cell-based. The settings on record: marine bacterium H. marina. As to the method:
as §1

For a further assay, the system named is V. alginolyticus. In words: MIC against marine bacteria. In kind it is cell-based. The settings on record: marine bacterium V. alginolyticus. How it is done:
as §1

For a further assay, the system named is Enteromorpha spores. In words: Inhibition of algae spore germination. The note with it: up to ten micrograms per ml. How it is done:
The effect of three bismuth containing compounds, bismuth dimercaprol (BisBAL), bismuth dimercaptotoluene (BisTOL), and bismuth ethanedithiol (BisEDT), on the settlement of algae was determined, particularly the ability of each compound to inhibit germination of Enteromorpha spores. Each compound was tested at 0.001, 0.01, 0.1, 1.0, and 10.0 μg/ml.

Take bismuth dimercaptotoluene [BisTOL]: the “EC50 (concentration at which 50% settlement inhibition occurs)” value with barnacle larvae is 15.4 ppm. Further, the “Inhibition of marine diatom settlement” value in the assay with marine diatom is “approximately 30%”. The figures for the minimum inhibitory concentration (MIC) with M. hydrocarbonoclasicus, against H. marina and in the assay with V. alginolyticus were 0.4 µg/mL, 7.2 µg/mL and 1 µg/mL, respectively. Moreover, the “Effect on germination of algae spores” value in the assay with Enteromorpha spores is “no inhibitory effect”.
